The assay concerns the target SUV420H1 enzyme (Homo sapiens, UniProt Q4FZB7). As to the kind of experiment: TR-FRET SAH SUV420H1 enzyme inhibition assay. In kind it is biochemical. The settings on record: Histone Peptide H4(8-30)me1 and SAM, overnight at room temp, TR-FRET detection of SAH, read-out: TR-FRET SAH_SUV420H1 IC50. On the procedure: Test compounds were dispensed by a Labcyte Echo in 384-well low volume assay plates with 3-fold serial dilutions from 50 μM to 0.00075 μM. 5 μL of SUV420H1 enzyme (Abbvie) at 90 nM was added to all wells except the no enzyme control wells, and incubated for 30 minutes at room temp before 5 μL of Histone Peptide H4(8-30)me1 (Anaspec) at 5 nM and SAM at 4 nM was added to all wells. The plates were incubated in a humidified chamber overnight at room temp and then 10 μL of the detection reagent that contained RIPA buffer (50 mM Tris-HCl, pH 8.0, 150 mM sodium chloride, 1.0% Igepal CA-630 (NP-40), 0.5% sodium deoxycholate and 0.1% sodium dodecyl sulfate) (Sigma) with 2 nM of Terbium chelate anti S-adenosyl-L-homocysteine (SAH) (Abbvie) antibody and Oregon Green labeled SAH at 4 nM was added. The plates were further incubated for 4 hours at room temperature. The plates were read in a Perkin Elmer Envision using a TR-FRET protocol with Excitation set at 335 nm and Emission at 520 and 495 nm. To generate dose response curves the data is normalized to percent inhibition by setting the average of the plus and minus enzyme control wells to 0% and 100% inhibition respectively. The IC50 values for the compounds are generated by fitting the normalized data with Accelrys Assay Explorer 3.3 to a sigmoidal curve model using […] regression, Y=(100*x^n)/(K^n+x^n), where Y is the measured response, x is the compound concentration, n is the Hill Slope and K is the IC50 and the lower and higher asymptotes are constrained to 0 and 100 respectively.
A general note: TR-FRET usually uses a lanthanide donor and a delayed reading to cut background.
Chain of SUV420H1 enzyme (Q4FZB7 whole entry): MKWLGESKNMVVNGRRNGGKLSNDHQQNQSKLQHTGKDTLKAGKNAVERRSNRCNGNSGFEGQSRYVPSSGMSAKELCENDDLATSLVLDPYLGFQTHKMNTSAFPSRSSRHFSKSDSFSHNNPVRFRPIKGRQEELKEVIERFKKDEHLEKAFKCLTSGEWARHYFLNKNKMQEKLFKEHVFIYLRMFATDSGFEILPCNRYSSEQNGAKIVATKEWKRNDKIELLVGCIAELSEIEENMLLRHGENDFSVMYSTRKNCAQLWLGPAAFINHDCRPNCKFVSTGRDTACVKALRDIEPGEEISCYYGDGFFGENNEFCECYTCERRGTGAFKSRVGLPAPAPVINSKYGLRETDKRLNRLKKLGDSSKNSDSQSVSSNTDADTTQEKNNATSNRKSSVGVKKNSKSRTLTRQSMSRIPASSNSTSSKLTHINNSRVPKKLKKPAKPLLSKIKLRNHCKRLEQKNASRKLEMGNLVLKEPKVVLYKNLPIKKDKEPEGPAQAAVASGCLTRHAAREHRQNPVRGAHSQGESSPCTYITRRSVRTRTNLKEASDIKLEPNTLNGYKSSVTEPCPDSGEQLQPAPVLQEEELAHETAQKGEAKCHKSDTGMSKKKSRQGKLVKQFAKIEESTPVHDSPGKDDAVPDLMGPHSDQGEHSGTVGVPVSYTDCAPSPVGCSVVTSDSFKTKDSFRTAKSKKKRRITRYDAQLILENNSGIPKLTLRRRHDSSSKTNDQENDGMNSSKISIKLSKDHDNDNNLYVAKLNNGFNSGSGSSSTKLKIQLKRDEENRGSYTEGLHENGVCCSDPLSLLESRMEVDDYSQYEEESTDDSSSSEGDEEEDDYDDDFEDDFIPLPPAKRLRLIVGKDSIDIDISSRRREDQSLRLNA
One may read the IC50 as the concentration at which inhibition is half-maximal. As to `Cn1cc(-c2cc(Cn3cnc4c(N)ncnc43)c3[nH]c(CN)cc3c2)cn1` [Example 18, 9-{[2-(aminomethyl)-5-(1-methyl-1H-pyrazol-4-yl)-1H-indol-7-yl]methyl}-9H-purin-6-amine], the IC50 stood at 0.561 µM.
Next, `CC(C)n1ncc2cc(C(=O)NCc3cc4cc(Cl)cc(Cn5cnc6c(N)ncnc65)c4[nH]3)cnc21` [Example 372, N-({7-[(6-amino-9H-purin-9-yl)methyl]-5-chloro-1H-indol-2-yl}methyl)-1-(propan-2-yl)-1H-pyrazolo[3,4-b]pyridine-5-carboxamide]: 0.97 µM; `Nc1ncnc2c1ncn2Cc1cc(Cl)cc2cc(CN(CC(=O)O)CC(=O)O)[nH]c12` [Example 101, 2,2′-[({7-[(6-amino-9H-purin-9-yl)methyl]-5-chloro-1H-indol-2-yl}methyl)imino]diacetic acid]: over 50 µM.
In the case of `CC(C)(C)OC(=O)N1CC=C(c2cc(Cn3cnc4c(N)ncnc43)c3[nH]c(CNC(=O)c4ccc(C#N)cc4F)cc3c2)CC1` [Example 289, tert-butyl 4-(7-[(6-amino-9H-purin-9-yl)methyl]-2-{[(4-cyano-2-fluorobenzoyl)amino]methyl}-1H-indol-5-yl)-3,6-dihydropyridine-1(2H)-carboxylate] it was 0.0613 µM.
Next, `Cc1noc(C)c1C(=O)NCc1cc2cc(-c3ccc(S(N)(=O)=O)cc3)cc(Cn3cnc4c(N)ncnc43)c2[nH]1` [Example 166, N-({7-[(6-amino-9H-purin-9-yl)methyl]-5-(4-sulfamoylphenyl)-1H-indol-2-yl}methyl)-3,5-dimethyl-1,2-oxazole-4-carboxamide]: 0.0889 µM; `Cc1cccc(CNCc2cc3cc(Cl)cc(Cn4cnc5c(N)ncnc54)c3[nH]2)c1F` [Example 245, 9-[(5-chloro-2-{[(2-fluoro-3-methylbenzyl)amino]methyl}-1H-indol-7-yl)methyl]-9H-purin-6-amine]: 2.03 µM.
Turning to `Cc1ncsc1C(=O)NCc1cc2cc(Cl)cc(Cn3cnc4c(N)ncnc43)c2[nH]1` [Example 148, N-({7-[(6-amino-9H-purin-9-yl)methyl]-5-chloro-1H-indol-2-yl}methyl)-4-methyl-1,3-thiazole-5-carboxamide], the IC50 is 1.03 µM.
In the case of `N#Cc1ccc(CNCc2cc3cc(Cl)cc(Cn4cnc5c(N)ncnc54)c3[nH]2)cc1` [Example 267, 4-{[({7-[(6-amino-9H-purin-9-yl)methyl]-5-chloro-1H-indol-2-yl}methyl)amino]methyl}benzonitrile] it was 3.43 µM.
In the case of `Cn1ccc2cc(C(=O)NCc3cc4cc(Cl)cc(Cn5cnc6c(N)ncnc65)c4[nH]3)ccc21` [Example 366, N-({7-[(6-amino-9H-purin-9-yl)methyl]-5-chloro-1H-indol-2-yl}methyl)-1-methyl-1H-indole-5-carboxamide] it was 2.87 µM; in that of `Cc1nc2c(cnn2C(C)C)cc1C(=O)NCc1cc2cc(Cl)cc(Cn3cnc4c(N)ncnc43)c2[nH]1` [Example 377, N-({7-[(6-amino-9H-purin-9-yl)methyl]-5-chloro-1H-indol-2-yl}methyl)-6-methyl-1-(propan-2-yl)-1H-pyrazolo[3,4-b]pyridine-5-carboxamide], 2.71 µM; in that of `CN(C)CCNC(=O)c1ccc(-c2cc(Cn3cnc4c(N)ncnc43)c3[nH]c(CN)cc3c2)cc1` [Example 49, 4-{2-(aminomethyl)-7-[(6-amino-9H-purin-9-yl)methyl]-1H-indol-5-yl}-N-[2-(dimethylamino)ethyl]benzamide], 0.193 µM.
Next, `CC(=O)N1CC=C(c2cc(Cn3cnc4c(N)ncnc43)c3[nH]c(CNC(=O)c4ccnnc4C)cc3c2)CC1` [Example 203, N-({5-(1-acetyl-1,2,3,6-tetrahydropyridin-4-yl)-7-[(6-amino-9H-purin-9-yl)methyl]-1H-indol-2-yl}methyl)-3-methylpyridazine-4-carboxamide]: 0.0277 µM; `Nc1ncnc2c1ncn2Cc1cc(Cl)cc2cc(CNCc3ccccc3Cl)[nH]c12` [Example 210, 9-[(5-chloro-2-{[(2-chlorobenzyl)amino]methyl}-1H-indol-7-yl)methyl]-9H-purin-6-amine]: 3.34 µM; `CCN(CC)Cc1cc2cc(Cl)cc(Cn3cnc4c(N)ncnc43)c2[nH]1` [Example 97, 9-({5-chloro-2-[(diethylamino)methyl]-1H-indol-7-yl}methyl)-9H-purin-6-amine]: 11.4 µM.
Consider `Nc1ncnc2c1ncn2Cc1cc(Cl)cc2cc(CNC(=O)c3ccc[nH]3)[nH]c12` [Example 146, N-({7-[(6-amino-9H-purin-9-yl)methyl]-5-chloro-1H-indol-2-yl}methyl)-1H-pyrrole-2-carboxamide], for which the IC50 was 14.2 µM.
In the case of `Nc1ncnc2c1ncn2Cc1cc(Cl)cc2cc(CNC(=O)c3ccc4cc[nH]c4c3)[nH]c12` [Example 356, N-({7-[(6-amino-9H-purin-9-yl)methyl]-5-chloro-1H-indol-2-yl}methyl)-1H-indole-6-carboxamide] it was 2.65 µM; in that of `Cc1cccc(C)c1CNCc1cc2cc(Cl)cc(Cn3cnc4c(N)ncnc43)c2[nH]1` [Example 290, 9-[(5-chloro-2-{[(2,6-dimethylbenzyl)amino]methyl}-1H-indol-7-yl)methyl]-9H-purin-6-amine], 2.8 µM.
Consider `NCc1cc2c(-c3cccnc3)ccc(Cn3cnc4c(N)ncnc43)c2[nH]1` [Example 69, 9-{[2-(aminomethyl)-4-(pyridin-3-yl)-1H-indol-7-yl]methyl}-9H-purin-6-amine], for which the half-maximal inhibitory concentration (IC50) came out at 0.663 µM.
In the case of `Cn1ncc2cc(C(=O)NCc3cc4cc(Cl)cc(Cn5cnc6c(N)ncnc65)c4[nH]3)ccc21` [Example 362, N-({7-[(6-amino-9H-purin-9-yl)methyl]-5-chloro-1H-indol-2-yl}methyl)-1-methyl-1H-indazole-5-carboxamide], the IC50 came out at 0.636 µM.
Next, `Nc1ncnc2c1ncn2Cc1cc(Cl)cc2cc(CNC(=O)c3ccc4ocnc4c3)[nH]c12` [Example 339, N-({7-[(6-amino-9H-purin-9-yl)methyl]-5-chloro-1H-indol-2-yl}methyl)-1,3-benzoxazole-5-carboxamide]: 6.87 µM; `NCc1cc2cc(-c3ccc4c(c3)CCO4)cc(Cn3cnc4c(N)ncnc43)c2[nH]1` [Example 57, 9-{[2-(aminomethyl)-5-(2,3-dihydro-1-benzofuran-5-yl)-1H-indol-7-yl]methyl}-9H-purin-6-amine]: 0.457 µM.
Consider `NCc1cc2cc(-c3cccnc3)cc(Cn3cnc4c(N)ncnc43)c2[nH]1` [Example 20, 9-{[2-(aminomethyl)-5-(pyridin-3-yl)-1H-indol-7-yl]methyl}-9H-purin-6-amine], for which the IC50 came out at 0.866 µM.
In the case of `Nc1ncnc2c1ncn2Cc1cc(Cl)cc2cc(CNC(=O)CN3CCOCC3)[nH]c12` [Example 127, N-({7-[(6-amino-9H-purin-9-yl)methyl]-5-chloro-1H-indol-2-yl}methyl)-2-(morpholin-4-yl)acetamide], the IC50 came out at 6 µM.
As to `Cc1nc2cc(C(=O)NCc3cc4cc(Cl)cc(Cn5cnc6c(N)ncnc65)c4[nH]3)ccc2[nH]1` [Example 363, N-({7-[(6-amino-9H-purin-9-yl)methyl]-5-chloro-1H-indol-2-yl}methyl)-2-methyl-1H-benzimidazole-5-carboxamide], the IC50 is 4.3 µM.
For the molecule `NCc1cc2cc(-c3ccc(CO)cc3)cc(Cn3cnc4c(N)ncnc43)c2[nH]1` [Example 33, (4-{2-(aminomethyl)-7-[(6-amino-9H-purin-9-yl)methyl]-1H-indol-5-yl}phenyl)methanol], the IC50 is 0.528 µM.
Take `Cc1ncccc1C(=O)NCc1cc2cc(Cl)cc(Cn3cnc4c(N)ncnc43)c2[nH]1` [Example 233, N-({7-[(6-amino-9H-purin-9-yl)methyl]-5-chloro-1H-indol-2-yl}methyl)-2-methylpyridine-3-carboxamide]: the half-inhibitory concentration (IC50) was 0.236 µM.
Regarding `Cc1onc(-c2ccccc2)c1C(=O)NCc1cc2cc(Cl)cc(Cn3cnc4c(N)ncnc43)c2[nH]1` [Example 326, N-({7-[(6-amino-9H-purin-9-yl)methyl]-5-chloro-1H-indol-2-yl}methyl)-5-methyl-3-phenyl-1,2-oxazole-4-carboxamide], the IC50 was found to be 6.2 µM.
Next, `Nc1ncnc2c1ncn2Cc1cc(Cl)cc2cc(CN3CCS(=O)(=O)CC3)[nH]c12` [Example 125, 9-({5-chloro-2-[(1,1-dioxidothiomorpholin-4-yl)methyl]-1H-indol-7-yl}methyl)-9H-purin-6-amine]: 4.62 µM; `CC(C)CCC(=O)NCc1cc2cc(Cl)cc(Cn3cnc4c(N)ncnc43)c2[nH]1` [Example 105, N-({7-[(6-amino-9H-purin-9-yl)methyl]-5-chloro-1H-indol-2-yl}methyl)-4-methylpentanamide]: 8.17 µM; `CC(=O)N1CCC(c2cc(Cn3cnc4c(N)ncnc43)c3[nH]c(CNC(=O)c4ccc(C#N)cc4Cl)cc3c2)CC1` [Example 281, N-({5-(1-acetylpiperidin-4-yl)-7-[(6-amino-9H-purin-9-yl)methyl]-1H-indol-2-yl}methyl)-2-chloro-4-cyanobenzamide]: 0.141 µM.
